# Experiments:
# E. coli 1F28 [1] = assay type: cell-based; details: E. coli 1F28 and 1A34; 10 mM in MHB
# S. aureus ATCC 29213 = assay: microbe, parasite or virus in culture; assay type: cell-based
# Protocol: (§1) Experiments were performed with two biological replicates.
# [2] = tested on: S. enteritidis ATCC 13076; assay: microbe, parasite or virus in culture; assay type: cell-based
# Protocol: as §1
# [3] = tested on: S. aureus 215 (cfr + LZD^R); assay: microbe, parasite or virus in culture; assay type: cell-based; details: S. aureus 215 (cfr + LZD^R)
# Protocol: as §1
# E. coli ATCC 25922 = assay: microbe, parasite or virus in culture; assay type: cell-based
# Protocol: as §1
# [4] = tested on: MDR E. coli B2 (mcr-1 + blaNDM-5); assay: microbe, parasite or virus in culture; assay type: cell-based
# Protocol: as §1
# E. coli 1F28 [5] = assay: Thermal and pH stability (residual antibacterial activity by MIC); assay type: physicochemical; details: residual MIC against E. coli 1F28
# Excerpt: (§2) Thermal, pH and proteolytic stability.
# papain = papain (Carica papaya, UniProt P00784); assay: Proteolytic stability (residual antibacterial activity by MIC); assay type: in vitro ADME; details: papain 10 mg/mL, 1 h preincubation; residual MIC against E. coli 1F28
# Chain of papain (P00784 134-345): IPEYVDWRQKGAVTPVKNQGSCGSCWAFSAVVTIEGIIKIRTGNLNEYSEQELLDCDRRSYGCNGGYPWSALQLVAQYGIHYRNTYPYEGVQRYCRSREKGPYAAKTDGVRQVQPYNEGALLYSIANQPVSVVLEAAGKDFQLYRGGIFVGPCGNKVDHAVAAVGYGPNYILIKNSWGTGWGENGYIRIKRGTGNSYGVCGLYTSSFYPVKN
# Excerpt: as §2
# E. coli 1F28 [6] = assay: LPS, lipids or NAC inhibition assay (MIC); assay type: cell-based
# Excerpt: Lipopolysaccharides (LPS), lipids or NAC inhibition assay.
# [7] = in 0.01 M PBS or water; compared among four active AMPs
substance,measurement,setting,value
Ac-WRLRWKTRWRLK-NH2 [WRK-12],activity in the presence of monovalent cations (Na^+ and K^+),E. coli 1F28 [1],not any loss of activity
same,MBC,"S. aureus ATCC 29213; ATCC 29213, 4 h",4 µg/mL
same,MIC,"S. aureus ATCC 29213; ATCC 29213, 18 h",4 µg/mL
same,MBC,"[2]; ATCC 13076, 4 h",4 µg/mL
same,MIC,"[2]; ATCC 13076, 18 h",4 µg/mL
same,MIC,"[3]; broth micro-dilution CLSI 2018, MHB, 18 h, 37 °C",2 µg/mL
same,MBC,"[3]; lowest concentration killing 99.9%, plated on MHA",2 µg/mL
same,MBC,"E. coli ATCC 25922; ATCC 25922, 4 h",8 µg/mL
same,MIC,"E. coli ATCC 25922; ATCC 25922, 18 h",4 µg/mL
same,MBC,"[4]; MDR B2 (mcr-1 + blaNDM-5, 4 h)",4 µg/mL
same,MIC decrease relative to WL-9,"[4]; MDR E. coli B2, insertion of three positive amino acids in WL-9",4 fold
same,activity reduction after thermal treatment,"E. coli 1F28 [5]; 121 °C, 1 h",50%
same,activity reduction after pH treatment,"E. coli 1F28 [5]; alkaline environment pH = 12, 1 h, readjusted to pH 7.2",50%
same,remaining antibacterial activity after pH treatment,"E. coli 1F28 [5]; pH 2 to 10 for 1 h, readjusted to pH 7.2",completely retained its activity
same,remaining antibacterial activity after thermal treatment,E. coli 1F28 [5]; treatment under 100 °C for 1 h,completely retained its activity
same,proteolytic stability,papain,sensitive
same,MIC increase with exogenous CL,"E. coli 1F28 [6]; 16 μg/mL CL, E. coli 1F28",16 fold
same,MIC increase with exogenous PG,"E. coli 1F28 [6]; 16 μg/mL PG, E. coli 1F28",16 fold
same,effect of exogenous LPS on antibacterial activity,"E. coli 1F28 [6]; LPS from E. coli O111:B4, 0 to 128 μg/mL, MIC against E. coli 1F28, chequerboard broth microdilution",weakened WRK-12 activity in a dose-dependent manner
same,MIC increase with ROS scavenger NAC,"E. coli 1F28 [6]; NAC 2.5 mM, E. coli 1F28, three independent experiments",6 fold
same,effect of exogenous PE on antibacterial activity,"E. coli 1F28 [6]; PE 0 to 16 μg/mL, E. coli 1F28",mildly impaired WRK-12 activity
same,solubility,[7],highest solubility
